{"source": "patent US20100093624A1", "about": "“PEPTIDE THERAPEUTICS THAT BIND VEGF AND METHODS OF USE THEREOF” (Cosmix Therapeutics LLC, priority 2008, published 2010)", "key": {"VEGF165 binding to KDR": {"biological_target": "T1, VEGF165 binding to KDR (Homo sapiens, UniProt P15692)", "T1 sequence (P15692 27-191 isoform P15692-4 limits assumed)": "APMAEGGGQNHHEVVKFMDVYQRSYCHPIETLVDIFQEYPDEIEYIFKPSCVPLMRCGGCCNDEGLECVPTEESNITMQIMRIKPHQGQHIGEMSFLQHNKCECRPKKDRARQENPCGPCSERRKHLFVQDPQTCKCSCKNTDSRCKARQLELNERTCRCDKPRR", "experiment": "Receptor ELISA (KDR)"}, "VEGF165 [1]": {"biological_target": "T2, VEGF165 (Homo sapiens, UniProt P15692)", "T2 construct": "purchased", "T2 sequence (P15692 27-191 isoform P15692-4 limits assumed)": "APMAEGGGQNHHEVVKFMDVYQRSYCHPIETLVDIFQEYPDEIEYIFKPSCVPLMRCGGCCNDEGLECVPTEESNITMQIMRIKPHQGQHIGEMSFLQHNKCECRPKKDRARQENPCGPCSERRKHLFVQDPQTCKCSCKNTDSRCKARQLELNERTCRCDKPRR", "experiment": "VEGF ELISA of biotin-tagged D-peptides", "type": "binding", "conditions": "VEGF165 coated wells, streptavidin/HRP detection", "description": "An ELISA method was developed in which commercially available VEGF165 was coated into ELISA plate wells (MaxiSorb). Biotin-tagged D-peptides (or an anti-VEGF monoclonal antibody, BAF293, R & D Systems) were then added. After washing binding of peptides or antibody to VEGF was determined by treatment with a streptavidin/HRP conjugate which allows colorimetric detection of the presence of the biotin tagged peptides or antibody (see FIG. 3)."}, "VEGF165 [2]": {"biological_target": "T2, VEGF165", "experiment": "Equilibrium bead-binding assay", "conditions": "bead-bound peptide, silver-stained SDS-PAGE", "description": "(§1) A quick, qualitative binding assay was devised in which biotin-tagged peptides are immobilized onto streptavidin-coated magnetic beads. The bead-bound peptides are then treated with VEGF (either synthetic or commercially available VEGF 165). After washing the beads are then boiled in denaturing buffer to release bound VEGF which is then detected by silver-stained SDS-PAGE gel (see FIG. 4)."}, "L-VEGF": {"biological_target": "T3, L-VEGF (Homo sapiens, UniProt P15692)", "T3 construct": "VEGF (8-50)-thioester; VEGF (51-101)-thioester; made in house; host or cells: chemical synthesis (Boc SPPS, ligation of two peptides, oxidative folding)", "T3 sequence (P15692 214-315)": "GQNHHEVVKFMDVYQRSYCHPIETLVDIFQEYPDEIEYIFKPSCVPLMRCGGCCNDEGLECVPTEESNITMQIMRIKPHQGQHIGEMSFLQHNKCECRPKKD", "experiment": "Equilibrium bead-binding assay", "conditions": "bead-bound peptide, silver-stained SDS-PAGE", "description": "as §1"}, "D-VEGF [3]": {"test_system": "D-VEGF", "experiment": "Equilibrium bead-binding assay", "conditions": "bead-bound peptide, silver-stained SDS-PAGE", "description": "as §1"}, "HUVEC cells": {"test_system": "HUVEC cells", "experiment": "HUVEC cell-proliferation assay", "type": "cell-based, human", "conditions": "for inhibition of HUVEC growth: tritium-labeled thymidine", "description": "Initial investigation into the biological activity of the peptides involved use of a HUVEC cell-proliferation assay. A contractor (ReliaTech, Braunschweig, Germany) with considerable experience in this assay was employed to carry it out. ReliaTech's assay employed a radiation-based system to detect cell growth by monitoring DNA synthesis using tritium-labeled thymidine.\nIn this assay, pregrown, starved HUVEC cells proliferate in response to exposure to VEGF or bFGF. Inhibition of VEGF activity will result in a measurable decrease in cell proliferation. […] The effects seen for other peptide sequences were attributed to the DMSO content of their stock solutions (DMSO was required to solubilize all peptides in this assay except for 07-D60)."}, "[4]": {"biological_target": "T4, rh-VEGF165 binding to Flt-1 (Homo sapiens, UniProt P15692)", "T4 sequence (P15692 27-191 isoform P15692-4 limits assumed)": "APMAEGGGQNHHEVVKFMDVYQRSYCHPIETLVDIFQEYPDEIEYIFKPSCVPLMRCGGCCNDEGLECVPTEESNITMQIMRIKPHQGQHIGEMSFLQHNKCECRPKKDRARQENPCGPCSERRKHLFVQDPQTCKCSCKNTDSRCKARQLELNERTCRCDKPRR", "experiment": "Receptor ELISA (Flt-1)", "description": "VEGF acts on two distinct receptors in-vivo, Flt-1 (VEGFR1) and KDR (VEGFR2). The majority of pro-angiogenic signaling appears to be mediated by KDR. Flt-1 binds to VEGF isoforms with a higher affinity than KDR and may serve a largely regulatory role in vivo. […] These studies have been extended using ELISA assays on VEGF Flt-1 binding. In this experiment a soluble fusion of Flt-1 was coated onto Costar ELISA plates. After blocking (2% BSA), solutions of rh-VEGF165 containing serial dilutions of peptide test articles were added. Detection was accomplished using a biotinylated anti-VEGF antibody in combination with a streptavidin-HRP conjugate. The results of the Flt-1 assay are shown in FIG. 6 along with previous results from the analogous KDR assay for comparison."}, "D-VEGF [5]": {"test_system": "D-VEGF", "experiment": "ELISA of L-peptides from affinity maturation selection", "type": "binding", "conditions": "25 nM, also 5M, 100 nM, 50 nM and 5 nM", "description": "FIG. 15 depicts an ELISA analysis of peptides deriving from sequences of the affinity maturation mRNA display selection at 25 nM. […] Then the plates were incubated with 25 nM of peptides 07-007, 07-071 and 07-072 respectively in HBS buffer for one hour at room temperature followed by 4× washes with HBS buffer. Detection with Streptavidin-Peroxidase stained with o-Phenylendiamin and H2O2 for 3 minutes.\nThen the plates were incubated with either 5 μM or 100 nM of peptides 07-007, 07-071 and 07-072 respectively in HBS buffer for one hour at room temperature followed by 4× washes with HBS buffer. Detection with Streptavidin-Peroxidase stained with o-Phenylendiamin and H2O2 for 3 minutes.\nThen the plates were incubated either with 50 nM or 5 nM of peptides 07-007, 07-071 and 07-072 respectively in HBS buffer for one hour at room temperature followed by 4× washes with HBS buffer. Detection with Streptavidin-Peroxidase stained with o-Phenylendiamin and H2O2 for 3 minutes.\nThen the plates were incubated with 25 nM of peptides 07-007, 07-071 and 07-072 respectively in HBS buffer for one hour at room temperature followed by 4× washes with HBS buffer."}, "[6]": {"test_system": "VEGF-dependent cell growth", "experiment": "VEGF-dependent cell growth assay", "type": "cell-based"}, "[7]": {"biological_target": "D-VEGF (synthetic VEGF receptor binding domain, residues 8-109, made of D-amino acids) (Homo sapiens (Human)) (UniProt P15692)", "experiment": "judged from ELISA signals on coated D-VEGF at 5 nM to 5 uM peptide; reference 07-007"}}, "note": "“Also recorded” adds a separate entry of the source. Non-standard residues stand in square brackets, D forms with d. Residues, ends and D or L forms follow the SMILES beside them. No end group written: not given here. PEG = not defined here"}
{"molecule": "CC(C)C[C@@H](NC(=O)[C@@H](CCCNC(=N)N)NC(=O)[C@H](NC(=O)CNC(=O)[C@@H](CCCNC(=N)N)NC(=O)[C@@H](Cc1c[nH]cn1)NC(=O)[C@@H](Cc1ccccc1)NC(=O)[C@H]1CCCN1C(=O)[C@@H](CC(C)C)NC(=O)[C@@H](CC(C)C)NC(=O)[C@H](NC(=O)[C@@H](Cc1c[nH]c2ccccc12)NC(=O)[C@@H](CO)NC(=O)CNC(=O)[C@@H](CC(C)C)NC(=O)[C@H](NC(=O)[C@@H](CO)NC(=O)[C@@H](CO)NC(=O)[C@H](NC(=O)[C@@H](CC(=O)O)NC(=O)[C@@H](CCC(=O)O)NC(=O)[C@@H](CCC(N)=O)NC(=O)[C@H](NC(=O)CN)C(C)C)C(C)C)[C@H](C)O)C(C)C)[C@H](C)O)C(=O)N[C@H](CO)C(=O)N[C@@H](C(=O)N[C@H](Cc1c[nH]c2ccccc12)C(=O)N[C@@H](C(=O)N[C@@H](C(N)=O)[C@H](C)O)C(C)C)C(C)C", "note": "[Peptide G2226] (H-G[dV][dQ][dE][dD][dV][dS][dS][dT][dL]G[dS][dW][dV][dL][dL][dP][dF][dH][dR]G[dT][dR][dL][dS][dV][dW][dV][dT]-NH2; N-terminus and C-terminus assumed)", "values": [{"measurement": "block of VEGF binding in the receptor ELISA", "setting": "VEGF165 binding to KDR; receptor not specified", "result": "does not appear to block VEGF binding"}, {"measurement": "binding to VEGF165", "setting": "VEGF165 [1]", "result": "bind tightly; also recorded: best affinity"}, {"measurement": "binding to commercially available VEGF 165", "setting": "VEGF165 [2]", "result": "found to bind"}, {"measurement": "binding to L-VEGF", "setting": "L-VEGF", "result": "binds only to L-VEGF; also recorded: found to bind"}, {"measurement": "binding to D-VEGF", "setting": "D-VEGF [3]", "result": "no detectable affinity"}, {"measurement": "activity in cell-based assays", "setting": "HUVEC cells", "result": "does not appear to be active"}]}
{"molecule": "Avastin: Genentech's anti-VEGF antibody [reference compound]", "values": [{"measurement": "inhibition of HUVEC growth", "setting": "HUVEC cells", "result": "strong inhibition"}]}
{"molecule": "GNALHWVCASNICWRPPWAGRLWGLVRLT [Peptide 07-D60, a modification of G2257]", "values": [{"measurement": "inhibition of HUVEC growth compared with Avastin", "setting": "HUVEC cells; 10 micromolar peptide vs 67 nM Avastin", "result": "approaches that for 67 nM Avastin"}, {"measurement": "inhibition of HUVEC growth", "setting": "HUVEC cells", "result": "inhibit HUVEC growth in a dose dependent manner; also recorded: inhibit HUVEC cell growth; also recorded: block HUVEC growth in a dose-dependent manner"}]}
{"molecule": "GNALHWVCASNICWRPPWAGRLWGLVRLT [Peptide G2257]", "values": [{"measurement": "inhibition of VEGF binding to KDR", "setting": "VEGF165 binding to KDR; receptor ELISA", "result": "inhibition of VEGF binding; also recorded: capable of inhibiting VEGF binding to KDR; also recorded: inhibits binding"}, {"measurement": "inhibition of VEGF binding to Flt-1", "setting": "[4]", "result": "inhibition of VEGF binding; also recorded: inhibits binding"}]}
{"molecule": "GVQEDVSSTLGSWVLLPFHRGTRLSVWVT (also: biotinylated form, place not given here) [G2211/2226]", "values": [{"measurement": "binding to VEGF165", "setting": "VEGF165 [1]", "result": "bind tightly"}, {"measurement": "binding to VEGF165", "setting": "VEGF165 [1]; listed as G2211/G2226", "result": "bind to VEGF165 selectively"}]}
{"molecule": "H2N-SGSSSGSGSGNALHWVCASNICWRTPWAGQLWRLVRLT-PEG-Bio (H-SGSSSGSGSGNALHWVCASNICWRTPWAGQLWRLVRLT-{PEG-biotin}; cysteine pairing not given here; reading uncertain) [Peptide 07-072]", "values": [{"measurement": "affinity towards D-VEGF in comparison to the non-matured sequence deriving from G2306", "setting": "D-VEGF [5]", "result": "vast improvement"}]}
{"molecule": "NALHWVCASNICWRSPWAGRLWGLVRL [Peptide G2306]", "values": [{"measurement": "inhibition in a VEGF-dependent cell growth assay", "setting": "[6]", "result": "effective dose-dependent inhibition"}]}
{"molecule": "H-SGSSSGSGSGNALHWVCASNICWRTPWAGQLWRLVRLT-{PEG-biotin} (cysteine pairing not given here; reading uncertain)", "note": "[Peptide 07-072 (L-form; variant carrying all three hot spot mutations)]", "values": [{"measurement": "fold improvement of affinity (against the non-mutated sequence 07-007)", "setting": "[7]", "result": "> 10 >=fold"}]}
